Laboratory results published in patent US20200038514A1, “FOLATE CONJUGATE FOR USE IN TARGETING TUMOR ASSOCIATED MACROPHAGES” (ENDOCYTE, INC., priority 2016, published 2020).

Tests used:
[1] = system: ST070 ovarian PDX tumors; experiment: In vivo activity against ovarian tumors; set-up: species or system mice
Protocol: Mice were maintained and tumor volumes were measures according to Method 3.
Primary human Ovarian model ST070 fragments (2-4 mm in diameter) were inoculated subcutaneously at the right flank of each mouse. Mice were randomized into experimental groups of 7 mice each and test articles were injected through the lateral tail vein under sterile conditions in a volume of […] of phosphate-buffered saline (PBS).

[2] = system: ID8-C115 ascites tumors; experiment: Conjugate 5 versus EC1456 against various stages of ID8-C115 ascites tumors, survival; type: in vivo, mice
Description: Mouse ascites tumors were generated by intra-peritoneal implantation of cultured cells at 5×10^6 in C57BL/6 mice.
In a first experiment (P-1836), all treatment started 7 days after the tumors were implanted. The mice were intravenously dosed with Conjugate 5 at 0.1 μmol/kg twice-per-week for a total of 6 doses (BIW×3). […] In a second experiment (P-1846), Conjugate 5 treatment started 21 days after the tumors were implanted. The mice were intravenously dosed with Conjugate 5 at 0.1 μmol/kg for 3 consecutive days each week for 3 weeks (D0-2×3, 9 doses). […] In a third experiment (P-1861), Conjugate 5 treatment started 35 days after the tumors were implanted. The mice were intravenously dosed with Conjugate 5 at 0.3 μmol/kg once-a-week for 2 consecutive weeks (SIW×2, 2 doses). […] In a fourth experiment (P-1836), Conjugate 5 treatment started 43 days after the tumors were implanted. The mice were intravenously dosed with Conjugate 5 at 0.3 μmol/kg once-a-week for 2 consecutive weeks (SIW×2, 2 doses). […] All mice were weighed 3 times/week and assessed for any clinical sign of swollen bellies indicative of ascites formation and for evidence of toxicity including respiratory distress, mobility, weight loss, diarrhea, hunched posture, and failure to eat. Once the animals developed ascites, they were monitored daily and euthanized when ascites became severe (rounded and walking on tip toes).

[3] = system: 4T1-C12 tumor cells; experiment: XTT cell viability assay, 4T1-C12; type: cell-based, mouse; settings: FRα-positive 4T1-C12, 2 hours exposure, 96 hour chase
Protocol: (§1) The FRα− and FRα+ expressing cell lines utilized to evaluate Conjugate 5 activity in-vitro and/or ex-vivo studies were (1) 4T1p, a mouse breast cancer cell line that resembles triple negative breast cancer in humans, (2) 4T1-C12, 4T1p stably transfected with a mouse FRa, and (3) IGROV1, a human ovarian carcinoma cell line that expresses the human FRα. 4T1p and 4T1-C12 cells were grown respectively in a folate-replete or folate-free RPMI1640 medium (Gibco BRL) (FFRPMI) containing 10% heat-inactivated fetal calf serum (HIFCS) and antibiotics, and maintained under a 5% CO2 atmosphere using standard cell culture techniques. IGROV1 cells were grown in the same medium as 4T1-C12.
(§2) 4T1p and 4T1-C12 tumor cells in 96-well plates (20,000 cells/well) were treated with 10-fold serial dilutions of Conjugate 5 (100 nM) in FFRPMI medium. After a 2 hour exposure, the drug-containing media were replaced and the cells were washed and allowed to incubate further for 96 hours. The cell viability was assessed by adding XTT (2,3-bis(2-methoxy-4-nitro-5-sulfo-phenyl)-2H-tetrazolium-5-carboxanilide) to the culture medium for 2 hours following the manufacturer's instructions. All results were expressed as % absorbance (minus background) relative to the untreated control cells.

[4] = system: 4T1p tumor (FRα-negative); experiment: Single-agent activity in vivo, 4T1p mammary tumors; set-up: species or system mice; settings: 0.2 μmol/kg i.v., BIW×3 doses
Description: (§3) Female Balb/c mice (4T1p, 4T1-C12) were purchased from Envigo (Indianapolis, Ind.) and used when they reached 6-8 weeks of age. The mice were fed a folate-deficient diet (TestDiet, St. Louis, Mo.) on the day of arrival.
(§4) Solid tumors in Balb/c mice were generated by subcutaneous implantation of cultured cells at 5×10^5 (4T1p) and 2×10^6 (4T1-C12) per animal in the mammary region.
(§5) Starting on day 0, mice with mammary 4T1p (˜78.3±12.1 mm^3) and 4T1-C12 (˜70.1±14.1 mm^3) were scheduled to receive Conjugate 5 at 200 nmol/kg, biweekly for two weeks. 4T1p tumor bearing mice received a total of 3 doses only and 4T1-C12 tumor bearing mice received a total of 4 doses as planned. Mice were weighed and measured for tumor size 3 times a week. The tumor volumes were calculated by the following formula: V=0.5×a×b^2, where a is the longest axis across the tumor, and b is the shorter axis perpendicular to a. The animals were euthanized when the tumor volume reached ˜1500 mm^3. Mice were also monitored closely for the evidence of toxicity such as respiratory distress, mobility, weight loss, diarrhea, hunched posture, and failure to eat. The last Conjugate 5 dose in the 4T1p tumor-bearing mice was skipped due to weight loss.

[5] = system: 4T1-C12 tumor (FRα-positive); experiment: Single-agent activity in vivo, 4T1-C12 mammary tumors; set-up: species or system mice; settings: 0.2 μmol/kg i.v., BIW×4 doses
Description: as §3, §4, §5

[6] = system: 4T1p tumor cells; experiment: XTT cell viability assay, 4T1p; type: cell-based, mouse; settings: 2 hours exposure up to 100 nM, 96 hour chase
Protocol: as §1, §2

## C=C1C[C@H]2C=Nc3cc(OCCCCCOc4cc(N)c(C(=O)N5CC(=C)C[C@H]5C5OCCN5C(=O)OCC(C)(C)SSCCC(=O)NCCNC(=O)CCOCCOCCOCCOCCNC(=O)CCN5C(=O)CC(SC[C@H](NC(=O)[C@H](CC(=O)O)NC(=O)[C@H](CC(=O)O)NC(=O)[C@H](CCCNC(=N)N)NC(=O)[C@H](CC(=O)O)NC(=O)CC[C@H](NC(=O)c6ccc(NCc7cnc8nc(N)[nH]c(=O)c8n7)cc6)C(=O)O)C(=O)O)C5=O)cc4OC)c(OC)cc3C(=O)N2C1 (some centres unmarked) [Conjugate 5]
[1]; 0.5 μmol/kg SIW for two weeks, n=7
  cure (number of mice): 7
[1]; Conjugate 5 0.5 μmol/kg SIW, EC1456 4.0 μmol/kg SIW, paclitaxel 15 mg/kg SIW, two weeks
  ovarian PDX tumor size compared to untreated control: decreased ovarian PDX tumor size
[2]; 7-day-old tumors, Conjugate 5 0.1 mol/kg BIW×6 doses, EC1456 2 mol/kg BIW×6 doses, untreated ~46 days
  median survival time: ~77 days post tumor implant
[2]; 21-day-old tumors, Conjugate 5 0.1 mol/kg D0-2×3, 9 doses, EC1456 2 μmol/kg D0-2×, 9 doses
  toxicity observed: mild ataxia
[2]; 21-day-old tumors, Conjugate 5 0.1 mol/kg D0-2×3, 9 doses, EC1456 2 μmol/kg D0-2×, 9 doses (two remaining animals), untreated ~46 days
  median survival time: ~76 days
[2]; 35-day-old tumors, Conjugate 5 0.3 μmol/kg SIW×2, 2 doses, EC1456 2 mol/kg D0-2×2, 4 doses, untreated ~42 days
  median survival time: ~64 days post tumor implant
[2]; 43-day-old tumors, Conjugate 5 0.3 μmol/kg SIW×2, 2 doses, EC1456 2 mol/kg D0-2×1, 3 doses, untreated ~46 days
  median survival time: ~57 days post tumor implant
[3]; excess folic acid
  activity in the presence of excess folic acid: partially reversible
[3]; read-out: relative IC50, inhibition of cell proliferation
  IC50: ~8.7 nM
[4]
  body weight: significant weight loss
  complete responders: no complete responders
  tumor sensitivity / tumor growth: partial sensitivity
[5]
  body weight: significant weight loss
[6]
  activity against FRα-negative 4T1p tumor cell in-vitro: completely inactive
